Measured values reported in ChEMBL document CHEMBL1147463, “Synthesis and anticancer activity of side chain analogs of the crambescidin alkaloids” (2004).

Assays:
Assay type in all cases: functional
[1] = Murine tumor cell selectivity was measured as zone unit differential between (C38) colon adenocarcinoma and (CFU) normal bone marrow in disk diffusion soft agar colony formation assay at a concentration of 19 ug/disk
[2] = Human tumor selectivity was measured as zone unit differential between (H116) colon tumor and (CEM) lymphocytic leukemia in disk diffusion soft agar colony formation assay at a concentration of 19 ug/disk
[3] = Murine tumor cell selectivity was measured as zone unit differential between (C38) colon adenocarcinoma and ([…]) murine cell line in disk diffusion soft agar colony formation assay at a concentration of 19 ug/disk
[4] = Murine tumor cell selectivity was measured as zone unit differential between ([…]) murine cell line and (CFU) normal bone marrow in disk diffusion soft agar colony formation assay at a concentration of 19 ug/disk
[5] = Human tumor selectivity was measured as zone unit differential between (H125) lung small cell carcinoma and (CEM) lymphocytic leukemia in disk diffusion soft agar colony formation assay at a concentration of 19 ug/disk
[6] = Murine tumor cell selectivity was measured as zone unit differential between (C38) colon adenocarcinoma and ([…]) murine cell line in disk diffusion soft agar colony formation assay at a concentration of 1 ug/disk
[7] = Human tumor selectivity was measured as zone unit differential between (H116) colon tumor and (CEM) lymphocytic leukemia in disk diffusion soft agar colony formation assay at a concentration of 1 ug/disk
[8] = Murine tumor cell selectivity was measured as zone unit differential between ([…]) murine cell line and (CFU) normal bone marrow in disk diffusion soft agar colony formation assay at a concentration of 1 ug/disk
[9] = Murine tumor cell selectivity was measured as zone unit differential between (C38) colon adenocarcinoma and (CFU) normal bone marrow in disk diffusion soft agar colony formation assay at a concentration of 1 ug/disk
[10] = Human tumor selectivity was measured as zone unit differential between (H125) lung small cell carcinoma and (CEM) lymphocytic leukemia in disk diffusion soft agar colony formation assay at a concentration of 1 ug/disk

Row | Compound | Selectivity [1] | Selectivity [2] | Selectivity [3] | Selectivity [4] | Selectivity [5] | Selectivity [6] | Selectivity [7] | Selectivity [8] | Selectivity [9] | Selectivity [10]
1 | CC[C@H]1C=CCC[C@@]2(C[C@@H]3CC[C@@H]4C[C@]5(CCC[C@@H](C)O5)NC(=[N+]43)N2)O1.[Cl-] | 0 | 0 | -350 | 350 | 150 |  |  |  |  | 
2 | CC[C@H]1C=CCC[C@@]2(C[C@@H]3CC[C@@H]4[C@H](C(=O)OC/C=C/c5ccccc5)[C@]5(CCC[C@@H](C)O5)NC(=[N+]34)N2)O1.[Cl-] | 100 | 200 | 150 | -50 | 200 |  |  |  |  | 
3 | CC[C@H]1C=CCC[C@@]2(C[C@@H]3CC[C@@H]4[C@H](C(=O)O)[C@]5(CCC[C@@H](C)O5)NC(=[N+]34)N2)O1.[Cl-] | -50 | 50 | -250 | 200 | 100 |  |  |  |  | 
4 | C=CCOC(=O)[C@H]1[C@H]2CC[C@H]3C[C@@]4(CCC=C[C@H](CC)O4)NC(=[N+]32)N[C@@]12CCC[C@@H](C)O2.[Cl-] |  |  |  |  |  | 350 | 0 | 100 | 450 | 0
